In brackets after ≈: the same amount, converted by molar mass.
Legend:
[1] = test system: Cryptococcus deneoformans; assay: MIC broth microdilution (CLSI); assay type: cell-based; conditions: Cryptococcus deneoformans JEC21
Protocol: (§1) Antifungal susceptibility was determined by broth microdilution according to the CLSI guidelines described in M27-Ed4 ([16]).

Cryptococcus tetragattii [2] = assay: MIC broth microdilution (CLSI); assay type: cell-based; conditions: Cryptococcus tetragattii WM779
Protocol: as §1

Candida dubliniensis [3] = assay: MIC broth microdilution (CLSI); assay type: cell-based; conditions: Candida dubliniensis M230642
Protocol: as §1

[4] = test system: 38 species of clinically relevant fungi; assay: MIC summary across 38 species of clinically relevant fungi; assay type: cell-based; conditions: 38 fungal species; read-out: GM MIC
Source text: […]; Table S3). […]. […] […]. […] […].

Aspergillus niger = assay: checkerboard drug interaction (FICI, MICc); assay type: cell-based;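 also: simplified diagonal checkerboard screen pairing antifungals with FPPS inhibitors, FICI calculated under the Loewe additivity model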
Protocol: (§2) Drug interactions between antifungals and FPPS inhibitors were investigated using a simplified checkerboard diagonal screening method ([45]). […] FICIs were determined according to the Loewe additivity model ([17]).

[5] = test system: Trichophyton interdigitale; assay: MIC broth microdilution (CLSI); assay type: cell-based; conditions: Trichophyton interdigitale R-234
Protocol: as §1

Pichia kudriavzevii = assay: checkerboard drug interaction (FICI, MICc); assay type: cell-based;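 also: antifungal plus FPPS inhibitor interactions tested in a simplified diagonal checkerboard screen, with FICI calculated under the Loewe additivity model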
Protocol: as §2

Candida auris = assay: MIC broth microdilution (CLSI); assay type: cell-based; conditions: Candida auris CDC-0384
Protocol: as §1

Aspergillus parafelis = assay: MIC broth microdilution (CLSI); assay type: cell-based; conditions: Aspergillus parafelis DTO 341-F2
Protocol: as §1

Scedosporium apiospermum = assay: checkerboard drug interaction (FICI, MICc); assay type: cell-based;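 also: simplified diagonal checkerboard screen of antifungal plus FPPS inhibitor pairs, with FICI computed under the Loewe additivity model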
Protocol: as §2

Paraphyton cookei = assay: checkerboard drug interaction (FICI, MICc);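 also: simplified diagonal checkerboard screen pairing an antifungal with an FPPS inhibitor, FICI computed under the Loewe additivity model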
Protocol: as §2

Epidermophyton floccosum = assay: checkerboard drug interaction (FICI, MICc);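 also: simplified diagonal checkerboard screen pairing antifungals with FPPS inhibitors, FICI calculated under the Loewe additivity model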
Protocol: as §2

Aspergillus terreus = assay: checkerboard drug interaction (FICI, MICc); assay type: cell-based;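 also: simplified diagonal checkerboard screen pairing antifungals with FPPS inhibitors, FICI derived by the Loewe additivity model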
Protocol: as §2

Trichophyton soudanense = assay: MIC broth microdilution (CLSI); conditions: Trichophyton soudanense R-167
Protocol: as §1

Nannizzia gypsea [6] = assay: checkerboard drug interaction (FICI, MICc);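 also: simplified diagonal checkerboard screen pairing antifungals with FPPS inhibitors, FICI derived using the Loewe additivity model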
Protocol: as §2

Fusarium solani [7] = assay: MIC broth microdilution (CLSI); conditions: Fusarium solani 04-16-056-1862
Protocol: as §1

Candida dubliniensis [8] = assay: checkerboard drug interaction (FICI, MICc); assay type: cell-based;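 also: simplified diagonal checkerboard screen pairing antifungals with FPPS inhibitors, FICI calculated under the Loewe additivity model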
Protocol: as §2

Cryptococcus tetragattii [9] = assay: checkerboard drug interaction (FICI, MICc); assay type: cell-based;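 also: simplified diagonal checkerboard screen pairing antifungals with FPPS inhibitors, with FICI calculated under the Loewe additivity model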
Protocol: as §2

Nannizzia gypsea [10] = assay: MIC broth microdilution (CLSI); assay type: cell-based; conditions: Nannizzia gypsea R-131
Protocol: as §1

Lomentospora prolificans = assay: checkerboard drug interaction (FICI, MICc);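 also: simplified diagonal checkerboard screen pairing antifungals with FPPS inhibitors, FICI calculated under the Loewe additivity model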
Protocol: as §2

Aspergillus udagawae = assay: MIC broth microdilution (CLSI); assay type: cell-based; conditions: Aspergillus udagawae 8G81
Protocol: as §1

Fusarium solani [11] = assay: checkerboard drug interaction (FICI, MICc); assay type: cell-based;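 also: simplified diagonal checkerboard screen pairing antifungals with FPPS inhibitors, FICI derived under the Loewe additivity model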
Protocol: as §2

Mucor circinelloides = assay: MIC broth microdilution (CLSI); assay type: cell-based; conditions: Mucor circinelloides 80-14-240-5007
Protocol: as §1

Trichophyton tonsurans = assay: checkerboard drug interaction (FICI, MICc); assay type: cell-based;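 also: simplified diagonal checkerboard screen combining antifungals with FPPS inhibitors, with FICI calculated under the Loewe additivity model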
Protocol: as §2

## O=P(O)(O)C(O)(Cn1ccnc1)P(=O)(O)O [ZOL, zoledronate]
[1]
  MIC / MEC: 128 µg/mL (≈ 470 µM)
Cryptococcus tetragattii [2]
  MIC / MEC: 64 µg/mL (≈ 235 µM)
Candida dubliniensis [3]
  MIC / MEC: 4 µg/mL (≈ 14.7 µM)
[4]
  MIC: 148 ± 176 µg/mL (≈ 544 µM)
Aspergillus niger; 5FC:ZOL
  FICI: 3
Aspergillus niger; AMB:ZOL
  FICI: 0.98
Aspergillus niger; CAS:ZOL
  FICI: 2
Aspergillus niger; FLC:ZOL
  FICI: 2
Aspergillus niger; ITR:ZOL
  FICI: 0.56
Aspergillus niger; KET:ZOL
  FICI: 1
Aspergillus niger; VOR:ZOL
  FICI: 1.02
Aspergillus niger; ZOL with 5FC
  bisphosphonate MICc: 512
Aspergillus niger; ZOL with AMB
  bisphosphonate MICc: 8
Aspergillus niger; ZOL with CAS
  bisphosphonate MICc: 512
Aspergillus niger; ZOL with FLC
  bisphosphonate MICc: 512
Aspergillus niger; ZOL with ITR
  bisphosphonate MICc: 32
Aspergillus niger; ZOL with KET
  bisphosphonate MICc: 256
Aspergillus niger; ZOL with VOR
  bisphosphonate MICc: 8
[5]
  MIC / MEC: 256 µg/mL (≈ 941 µM)
Pichia kudriavzevii; 5FC:ZOL
  FICI: 1.13
Pichia kudriavzevii; AMB:ZOL
  FICI: 0.63
Pichia kudriavzevii; CAS:ZOL
  FICI: 0.56
Pichia kudriavzevii; FLC:ZOL
  FICI: 0.67
Pichia kudriavzevii; ITR:ZOL
  FICI: 0.5
Pichia kudriavzevii; KET:ZOL
  FICI: 0.38
Pichia kudriavzevii; VOR:ZOL
  FICI: 2.25
Pichia kudriavzevii; ZOL with 5FC
  bisphosphonate MICc: 256
Pichia kudriavzevii; ZOL with AMB
  bisphosphonate MICc: 32
Pichia kudriavzevii; ZOL with CAS
  bisphosphonate MICc: 16
Pichia kudriavzevii; ZOL with FLC
  bisphosphonate MICc: 128
Pichia kudriavzevii; ZOL with ITR
  bisphosphonate MICc: 64
Pichia kudriavzevii; ZOL with KET
  bisphosphonate MICc: 64
Pichia kudriavzevii; ZOL with VOR
  bisphosphonate MICc: 64
Candida auris
  MIC / MEC: 128 µg/mL (≈ 470 µM)
Aspergillus parafelis
  MIC / MEC: >256 µg/mL
Scedosporium apiospermum; 5FC:ZOL
  FICI: 3
Scedosporium apiospermum; AMB:ZOL
  FICI: 1.5
Scedosporium apiospermum; CAS:ZOL
  FICI: ≥4
Scedosporium apiospermum; FLC:ZOL
  FICI: 0.63
Scedosporium apiospermum; ITR:ZOL
  FICI: 0.56
Scedosporium apiospermum; KET:ZOL
  FICI: 0.63
Scedosporium apiospermum; VOR:ZOL
  FICI: 1.5
Scedosporium apiospermum; ZOL with 5FC
  bisphosphonate MICc: 256
Scedosporium apiospermum; ZOL with AMB
  bisphosphonate MICc: 128
Scedosporium apiospermum; ZOL with CAS
  bisphosphonate MICc: 512
Scedosporium apiospermum; ZOL with FLC
  bisphosphonate MICc: 32
Scedosporium apiospermum; ZOL with ITR
  bisphosphonate MICc: 16
Scedosporium apiospermum; ZOL with KET
  bisphosphonate MICc: 32
Scedosporium apiospermum; ZOL with VOR
  bisphosphonate MICc: 128
Paraphyton cookei; 5FC:ZOL
  FICI: ≥4
Paraphyton cookei; AMB:ZOL
  FICI: 0.5
Paraphyton cookei; CAS:ZOL
  FICI: 0.63
Paraphyton cookei; FLC:ZOL
  FICI: 0.63
Paraphyton cookei; ITR:ZOL
  FICI: 0.56
Paraphyton cookei; KET:ZOL
  FICI: 0.56
Paraphyton cookei; VOR:ZOL
  FICI: 0.38
Paraphyton cookei; ZOL with 5FC
  bisphosphonate MICc: 128
Paraphyton cookei; ZOL with AMB
  bisphosphonate MICc: 32
Paraphyton cookei; ZOL with CAS
  bisphosphonate MICc: 16
Paraphyton cookei; ZOL with FLC
  bisphosphonate MICc: 16
Paraphyton cookei; ZOL with ITR
  bisphosphonate MICc: 8
Paraphyton cookei; ZOL with KET
  bisphosphonate MICc: 8
Paraphyton cookei; ZOL with VOR
  bisphosphonate MICc: 16
Epidermophyton floccosum; 5FC:ZOL
  FICI: 1.5
Epidermophyton floccosum; AMB:ZOL
  FICI: 1
Epidermophyton floccosum; CAS:ZOL
  FICI: 2.17
Epidermophyton floccosum; FLC:ZOL
  FICI: 0.63
Epidermophyton floccosum; ITR:ZOL
  FICI: 0.63
Epidermophyton floccosum; KET:ZOL
  FICI: 0.5
Epidermophyton floccosum; VOR:ZOL
  FICI: 1.13
Epidermophyton floccosum; ZOL with 5FC
  bisphosphonate MICc: 64
Epidermophyton floccosum; ZOL with AMB
  bisphosphonate MICc: 32
Epidermophyton floccosum; ZOL with CAS
  bisphosphonate MICc: 16
Epidermophyton floccosum; ZOL with FLC
  bisphosphonate MICc: 8
Epidermophyton floccosum; ZOL with ITR
  bisphosphonate MICc: 8
Epidermophyton floccosum; ZOL with KET
  bisphosphonate MICc: 16
Epidermophyton floccosum; ZOL with VOR
  bisphosphonate MICc: 8
Aspergillus terreus; 5FC:ZOL
  FICI: 1.5
Aspergillus terreus; AMB:ZOL
  FICI: 1
Aspergillus terreus; CAS:ZOL
  FICI: 1.5
Aspergillus terreus; FLC:ZOL
  FICI: 0.38
Aspergillus terreus; ITR:ZOL
  FICI: 0.51
Aspergillus terreus; KET:ZOL
  FICI: 0.25
Aspergillus terreus; VOR:ZOL
  FICI: 0.52
Aspergillus terreus; ZOL with 5FC
  bisphosphonate MICc: 128
Aspergillus terreus; ZOL with AMB
  bisphosphonate MICc: 64
Aspergillus terreus; ZOL with CAS
  bisphosphonate MICc: 64
Aspergillus terreus; ZOL with FLC
  bisphosphonate MICc: 32
Aspergillus terreus; ZOL with ITR
  bisphosphonate MICc: 32
Aspergillus terreus; ZOL with KET
  bisphosphonate MICc: 16
Aspergillus terreus; ZOL with VOR
  bisphosphonate MICc: 2
Trichophyton soudanense
  MIC / MEC: 64 µg/mL (≈ 235 µM)
Nannizzia gypsea [6]; 5FC:ZOL
  FICI: 3
Nannizzia gypsea [6]; AMB:ZOL
  FICI: 0.75
Nannizzia gypsea [6]; CAS:ZOL
  FICI: 0.75
Nannizzia gypsea [6]; FLC:ZOL
  FICI: 0.31
Nannizzia gypsea [6]; ITR:ZOL
  FICI: 0.38
Nannizzia gypsea [6]; KET:ZOL
  FICI: 0.19
Nannizzia gypsea [6]; VOR:ZOL
  FICI: 0.28
Nannizzia gypsea [6]; ZOL with 5FC
  bisphosphonate MICc: 256
Nannizzia gypsea [6]; ZOL with AMB
  bisphosphonate MICc: 64
Nannizzia gypsea [6]; ZOL with CAS
  bisphosphonate MICc: 64
Nannizzia gypsea [6]; ZOL with FLC
  bisphosphonate MICc: 16
Nannizzia gypsea [6]; ZOL with ITR
  bisphosphonate MICc: 32
Nannizzia gypsea [6]; ZOL with KET
  bisphosphonate MICc: 32
Nannizzia gypsea [6]; ZOL with VOR
  bisphosphonate MICc: 8
Fusarium solani [7]
  MIC / MEC: 256 µg/mL (≈ 941 µM)
Candida dubliniensis [8]; 5FC:ZOL
  FICI: 0.56
Candida dubliniensis [8]; AMB:ZOL
  FICI: 2
Candida dubliniensis [8]; CAS:ZOL
  FICI: 0.2
Candida dubliniensis [8]; FLC:ZOL
  FICI: 0.42
Candida dubliniensis [8]; ITR:ZOL
  FICI: 0.5
Candida dubliniensis [8]; KET:ZOL
  FICI: 0.38
Candida dubliniensis [8]; VOR:ZOL
  FICI: 0.46
Candida dubliniensis [8]; ZOL with 5FC
  bisphosphonate MICc: 0.25
Candida dubliniensis [8]; ZOL with AMB
  bisphosphonate MICc: 4
Candida dubliniensis [8]; ZOL with CAS
  bisphosphonate MICc: 0.125
Candida dubliniensis [8]; ZOL with FLC
  bisphosphonate MICc: 1
Candida dubliniensis [8]; ZOL with ITR
  bisphosphonate MICc: 1
Candida dubliniensis [8]; ZOL with KET
  bisphosphonate MICc: 1
Candida dubliniensis [8]; ZOL with VOR
  bisphosphonate MICc: 1
Cryptococcus tetragattii [9]; 5FC:ZOL
  FICI: 1.13
Cryptococcus tetragattii [9]; AMB:ZOL
  FICI: 1.25
Cryptococcus tetragattii [9]; CAS:ZOL
  FICI: 2.5
Cryptococcus tetragattii [9]; FLC:ZOL
  FICI: 0.5
Cryptococcus tetragattii [9]; ITR:ZOL
  FICI: 2.06
Cryptococcus tetragattii [9]; KET:ZOL
  FICI: 0.75
Cryptococcus tetragattii [9]; VOR:ZOL
  FICI: 1.46
Cryptococcus tetragattii [9]; ZOL with 5FC
  bisphosphonate MICc: 64
Cryptococcus tetragattii [9]; ZOL with AMB
  bisphosphonate MICc: 64
Cryptococcus tetragattii [9]; ZOL with CAS
  bisphosphonate MICc: 32
Cryptococcus tetragattii [9]; ZOL with FLC
  bisphosphonate MICc: 16
Cryptococcus tetragattii [9]; ZOL with ITR
  bisphosphonate MICc: 4
Cryptococcus tetragattii [9]; ZOL with KET
  bisphosphonate MICc: 16
Cryptococcus tetragattii [9]; ZOL with VOR
  bisphosphonate MICc: 32
Nannizzia gypsea [10]
  MIC / MEC: 256 µg/mL (≈ 941 µM)
Lomentospora prolificans; 5FC:ZOL
  FICI: 2.5
Lomentospora prolificans; AMB:ZOL
  FICI: 0.75
Lomentospora prolificans; CAS:ZOL
  FICI: 3
Lomentospora prolificans; FLC:ZOL
  FICI: 1.13
Lomentospora prolificans; ITR:ZOL
  FICI: 0.63
Lomentospora prolificans; KET:ZOL
  FICI: 1
Lomentospora prolificans; VOR:ZOL
  FICI: 1.06
Lomentospora prolificans; ZOL with 5FC
  bisphosphonate MICc: 256
Lomentospora prolificans; ZOL with AMB
  bisphosphonate MICc: 256
Lomentospora prolificans; ZOL with CAS
  bisphosphonate MICc: 512
Lomentospora prolificans; ZOL with FLC
  bisphosphonate MICc: 64
Lomentospora prolificans; ZOL with ITR
  bisphosphonate MICc: 64
Lomentospora prolificans; ZOL with KET
  bisphosphonate MICc: 256
Lomentospora prolificans; ZOL with VOR
  bisphosphonate MICc: 32
Aspergillus udagawae
  MIC / MEC: 256 µg/mL (≈ 941 µM)
Fusarium solani [11]; 5FC:ZOL
  FICI: 3
Fusarium solani [11]; AMB:ZOL
  FICI: 0.75
Fusarium solani [11]; CAS:ZOL
  FICI: ≥4
Fusarium solani [11]; FLC:ZOL
  FICI: 0.75
Fusarium solani [11]; ITR:ZOL
  FICI: 0.38
Fusarium solani [11]; KET:ZOL
  FICI: 0.75
Fusarium solani [11]; VOR:ZOL
  FICI: 1.03
Fusarium solani [11]; ZOL with 5FC
  bisphosphonate MICc: 256
Fusarium solani [11]; ZOL with AMB
  bisphosphonate MICc: 64
Fusarium solani [11]; ZOL with CAS
  bisphosphonate MICc: 256
Fusarium solani [11]; ZOL with FLC
  bisphosphonate MICc: 128
Fusarium solani [11]; ZOL with ITR
  bisphosphonate MICc: 32
Fusarium solani [11]; ZOL with KET
  bisphosphonate MICc: 128
Fusarium solani [11]; ZOL with VOR
  bisphosphonate MICc: 8
Mucor circinelloides
  MIC / MEC: 64 µg/mL (≈ 235 µM)
Trichophyton tonsurans; 5FC:ZOL
  FICI: 2
Trichophyton tonsurans; AMB:ZOL
  FICI: 3.92
Trichophyton tonsurans; CAS:ZOL
  FICI: 1
Trichophyton tonsurans; FLC:ZOL
  FICI: 0.31
Trichophyton tonsurans; ITR:ZOL
  FICI: 0.38
Trichophyton tonsurans; KET:ZOL
  FICI: 0.25
Trichophyton tonsurans; VOR:ZOL
  FICI: 0.61
Trichophyton tonsurans; ZOL with 5FC
  bisphosphonate MICc: 128
Trichophyton tonsurans; ZOL with AMB
  bisphosphonate MICc: 256
Trichophyton tonsurans; ZOL with CAS
  bisphosphonate MICc: 64
Trichophyton tonsurans; ZOL with FLC
  bisphosphonate MICc: 8
Trichophyton tonsurans; ZOL with ITR
  bisphosphonate MICc: 16
Trichophyton tonsurans; ZOL with KET
  bisphosphonate MICc: 16
Trichophyton tonsurans; ZOL with VOR
  bisphosphonate MICc: 16
